Experimental data as given in article PMC5041959, “A high-content EMT screen identifies multiple receptor tyrosine kinase inhibitors with activity on TGFβ receptor” (Oncotarget, 2016).
Read-outs that look alike come from different tables or passages of the source.

What was measured:
NMuMG cells = test: High-content microscopy EMT screen in TGFβ-treated NMuMG cells (FA, SF, FN, cell count); assay type: cell-based, murine
Py2T cells = test: High-content microscopy EMT assay in TGFβ-treated Py2T breast cancer cells; assay type: cell-based, murine; details: Mus musculus
[1] = Mus musculus; NMuMG; cell count decreased by 50% compared to DMSO control; read-out: Tox IC50
[2] = NMuMG, TGFβ1 2 ng/ml plus compound, 4 days; parameter decreased by 50%
[3] = NMuMG; compared to reference 10 μM SB-431542 = 100%
[4] = NMuMG; cell count decreased by 50% compared to DMSO control; read-out: Tox IC50
[5] = NMuMG; cell count increased by 50% compared to 100% with 10 μM SB-431542

| Compound | IC50 (NMuMG cells; [1]) [nM] | FA IC50 (focal adhesion formation) (NMuMG cells; [2]) | FN IC50 (fibronectin patch formation) (NMuMG cells; [2]) | SF IC50 (stress fibers) (NMuMG cells; [2]) | Emax (maximal effect on cell count) (NMuMG cells; [3]) | also measured |
| --- | --- | --- | --- | --- | --- | --- |
| Nc1ncn([C@H]2C[C@H](O)[C@@H](CO)O2)c(=O)n1 [5-Aza-2′-deoxycytidine] | 391 | n.m. | n.m. | n.m. | n.m. | – |
| Nc1ncn([C@@H]2O[C@H](CO)[C@@H](O)[C@H]2O)c(=O)n1 [5-Azacytidine] | 1260 | n.m. | n.m. | n.m. | n.m. | – |
| O=c1[nH]c(=O)n([C@H]2C[C@H](O)[C@@H](CO)O2)cc1Br [5-Bromo-2′-deoxyuridine] | > 3000 | – | – | – | – | IC50 (NMuMG cells; Mus musculus, 96 h; NMuMG, TGFβ1 2 ng/ml plus compound, 4 days; parameter decreased by 50%; read-out: FA IC50 (focal adhesion formation)): 719 nM; IC50 (NMuMG cells; Mus musculus, 96 h; NMuMG, TGFβ1 2 ng/ml plus compound, 4 days; parameter decreased by 50%; read-out: FN IC50 (fibronectin patch formation)): 321 nM; IC50 (NMuMG cells; Mus musculus, 96 h; NMuMG, TGFβ1 2 ng/ml plus compound, 4 days; parameter decreased by 50%; read-out: SF IC50 (stress fibers)): 632 nM; IC50 (NMuMG cells; Mus musculus; read-out: CCI IC50 (cell count increase)): 300 nM; Emax (NMuMG cells; Mus musculus; read-out: Emax (maximal effect on cell count)): 19% |
| CCN1CCN(Cc2ccc(-c3cc4c(N[C@H](C)c5ccccc5)ncnc4[nH]3)cc2)CC1 [AEE788] | 44 | n.m. | n.m. | n.m. | n.m. | – |
| CNC(=O)c1ccccc1Sc1ccc2c(/C=C/c3ccccn3)n[nH]c2c1 [Axitinib] | – | – | – | – | n.m. | – |
| COc1cc2c(Oc3ccc4[nH]c(C)cc4c3F)ncnc2cc1OCCCN1CCCC1 [Cediranib (azd2171), Cediranib] | 967 | n.m. | n.m. | n.m. | n.m. | – |
| C[C@@H](Oc1cc(-c2cnn(C3CCNCC3)c2)cnc1N)c1c(Cl)ccc(F)c1Cl [Crizotinib] | 1720 | n.m. | n.m. | n.m. | n.m. | – |
| Cc1nc(Nc2ncc(C(=O)Nc3c(C)cccc3Cl)s2)cc(N2CCN(CCO)CC2)n1 [Dasatinib] | 50.9 | n.m. | n.m. | n.m. | n.m. | – |
| c1ccc2c(c1)[I+]c1ccccc1-2 [Diphenyleneiodonium chloride (DPI), Diphenyleneiodonium chloride] | 453 | n.m. | n.m. | n.m. | n.m. | – |
| C#Cc1cccc(Nc2ncnc3cc(OCCOC)c(OCCOC)cc23)c1 [Erlotinib] | 68.5 | n.m. | n.m. | n.m. | – | Emax (maximal effect on cell count) (NMuMG cells): n.m. |
| COc1cc([C@@H]2c3cc4c(cc3[C@@H](O[C@@H]3O[C@@H]5CO[C@@H](C)O[C@H]5[C@H](O)[C@H]3O)[C@H]3COC(=O)[C@H]23)OCO4)cc(OC)c1O [Etoposide] | 1170 | n.m. | n.m. | n.m. | n.m. | – |
| O=S(=O)(c1cccc2cnccc12)N1CCCNCC1 [Fasudil] | – | – | – | – | – | IC50 (Py2T cells; read-out: CCI IC50 (cell count increase)): 1680 nM; Emax (Py2T cells; read-out: Emax (maximal effect on cell count)): 53.6%; IC50 (Py2T cells; read-out: Tox IC50): > 25000 nM; IC50 (NMuMG cells; Mus musculus, read-out: CCI IC50 (cell count increase)): 2870 nM; IC50 (NMuMG cells; Mus musculus, read-out: EMT (FA/SF/FN) combined IC50): 3020 nM; Emax (NMuMG cells; Mus musculus, read-out: Emax (maximal effect on cell count)): 28.2%; IC50 (NMuMG cells; Mus musculus, read-out: Tox IC50): > 25000 nM |
| COc1cc2ncnc(Nc3ccc(F)c(Cl)c3)c2cc1OCCCN1CCOCC1 [Gefitinib] | – | – | – | – | – | Emax (maximal effect on cell count) (NMuMG cells): n.m. |
| O=C(Cc1ccc(-c2ccc(OCCN3CCOCC3)cc2)cn1)NCc1ccccc1 [KX2-391] | – | n.m. | n.m. | n.m. | n.m. | IC50 (NMuMG cells; [4]): 15 nM; CCI IC50 (cell count increase) (NMuMG cells; [5]): n.m. |
| CS(=O)(=O)CCNCc1ccc(-c2ccc3ncnc(Nc4ccc(OCc5cccc(F)c5)c(Cl)c4)c3c2)o1 [Lapatinib] | 134 | n.m. | n.m. | n.m. | n.m. | – |
| CO[C@@H]1C[C@@H](C[C@H]2CC[C@H](C)[C@H]([C@@H](C)C(=O)O)O2)O[C@]2(O[C@](C)([C@H]3CC[C@@](C)([C@@H]4O[C@@H]([C@H]5O[C@@](O)(CO)[C@H](C)C[C@@H]5C)C[C@@H]4C)O3)C[C@H]2C)[C@@H]1C [Nigericin] | < 40 | n.m. | n.m. | n.m. | n.m. | – |
| CC(C)(C)n1nc(-c2ccc(Cl)cc2)c2c(N)ncnc21 [PP2] | – | n.m. | n.m. | n.m. | n.m. | IC50 (NMuMG cells; [4]): 4730 nM; CCI IC50 (cell count increase) (NMuMG cells; [5]): n.m. |
| CC[C@@H](C(=O)[C@@H](C)[C@@H](O)[C@H](C)[C@@H]1O[C@@H]([C@@H](CC)C(=O)O)CC[C@@H]1C)[C@H]1O[C@]2(C=C[C@@H](O)[C@]3(CC[C@@](C)([C@H]4CC[C@](O)(CC)[C@H](C)O4)O3)O2)[C@H](C)C[C@@H]1C [Salinomycin] | 240 | n.m. | n.m. | n.m. | – | Emax (maximal effect on cell count) (NMuMG cells): n.m. |
| CCN(CC)CCNC(=O)c1c(C)[nH]c(/C=C2\C(=O)Nc3ccc(F)cc32)c1C [Sunitinib malate] | 5100 | n.m. | n.m. | n.m. | n.m. | – |
| N#CC(=C(/N)Sc1ccccc1N)/C(C#N)=C(/N)Sc1ccccc1N [U0126] | – | n.m. | n.m. | n.m. | n.m. | IC50 (NMuMG cells; [4]): 1600 nM; CCI IC50 (cell count increase) (NMuMG cells; [5]): n.m. |
| COc1cc2c(Nc3ccc(Br)cc3F)ncnc2cc1OCC1CCN(C)CC1 [Vandetanib] | 208 | n.m. | n.m. | n.m. | n.m. | – |
| Clc1ccc(Nc2nnc(Cc3ccncc3)c3ccccc23)cc1 [Vatalanib] | 10600 | n.m. | n.m. | n.m. | n.m. | – |
| AZD4547 | – | n.m. | n.m. | n.m. | – | CCI IC50 (cell count increase) (NMuMG cells): n.m.; Emax (maximal effect on cell count) (NMuMG cells): n.m.; IC50 (NMuMG cells; [4]): 3030 nM |
| Abamectin | – | n.m. | n.m. | n.m. | n.m. | IC50 (NMuMG cells; [4]): 9500 nM; CCI IC50 (cell count increase) (NMuMG cells; [5]): n.m. |
